According to patent US20060135501A1, “Piperidinyl-thiazole carboxylic acid derivatives as angiogenesis inhibitors” (priority 2002, published 2006):

Assays:
[1] = test system: human umbilical vein endothelial cells (HUVEC); assay: HUVEC proliferation assay co-stimulated with rhVEGF; format: cell-based; conditions: Homo sapiens, HUVEC, Table 6
Experimental: The HUVEC assay measures the potency of test substances to inhibit in vitro proliferation of human umbilical vein endothelial cells (HUVEC) when co-stimulated with recombinant human vascular endothelial growth factor (rhVEGF).
HUVEC are grown under defined conditions (EGM-2 medium, 37° C., 5% CO2 and 95% humidity). They are seeded into 48-well plates using EBM medium with only 1% serum and incubated for 24 h. This is to ensure that cells are not stimulated before treatment with VEGF and test compound.
Test compounds are diluted in medium to concentrations between 0.05 and 50 μM and dosed together with VEGF165 at 12 ng/ml. This VEGF concentration was determined in a VEGF-dose-response curve to be just sub-optimal for maximum cell proliferation. Cells are incubated for 48 h at above conditions and viable cell density is measured using a tetrazolium compound (MTS). Viable cells reduce MTS into a soluble formazan product, which has an absorbance maximum at 490 nm. The absorbance is directly proportional to cell density.
EBM+1% serum (no VEGF) ? Minimum or Blank
EBM+1% serum (12 ng/ml) ? Maximum

[2] = test system: PDGF binding to mouse 3T3 cells; assay: Platelet-Derived Growth Factor (PDGF) radioligand binding assay
Experimental: (§1) Compounds 1633-00382 and 1633-02177 were tested for selectivity by determining their effect on the following assays: • Basic Fibroblast Growth Factor (FGF)-Induced cell proliferation (Gospodarowicz D, Brown K D, Birdwell C R & Zetter B R (1978) J. Cell. Biol. 77: 774-788); • Epidermal Growth Factor (EGF) radioligand binding assay (Dittadi R, Gion M, Brazzale A., Bruscagnin G. (1990) Clin. Chem. 36: 849-854; Massague J (1983) J. Biol. Chem. 258:13614-13620); and • Platelet-Derived Growth Factor (PDGF) radioligand binding assay (Williams L T, Tremble P M, Lavin M F & Sunday M E (1984) J. Biol. Chem. 259 5287-5294

[3] = target: T1, rhVEGF165-biotin (Homo sapiens, UniProt P15692); assay: VEGF-Binding ELISA (dose-response); conditions: Table 6
T1 sequence (P15692 27-191 isoform P15692-4): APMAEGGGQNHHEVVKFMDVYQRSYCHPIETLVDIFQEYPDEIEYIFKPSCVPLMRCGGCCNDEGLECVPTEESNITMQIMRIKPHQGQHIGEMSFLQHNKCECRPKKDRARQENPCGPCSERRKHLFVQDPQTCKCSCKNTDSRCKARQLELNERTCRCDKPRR
Experimental: The potency of test substances as a VEGF-neutralising moiety is measured in an ELISA format. This assay measures the solution-phase interaction between rhVEGF165-biotin and test sample. Unbound VEGF165-biotin is then immobilised on a solid-phase anti-hVEGF antibody (R&D systems MAB293). The biotin signal is detected with streptavidin-alkaline phosphatase, which gives a colorimetric signal when incubated with p-nitrophenyl phosphate. Plates are read in a spectrophotometer at 405 nm.
Any test compound that binds to VEGF165-biotin and prevents it from binding to the antibody will lower the color signal and be recognized as a “hit”. Hits were defined as compounds that show>60% inhibition.
VEGF165-biotin+assay buffer ? 0% inhibition
Soluble VEGF receptor (sflt @ 4 nM) ? 70% inhibition
The primary screening of all library compounds was done at a compound concentration of 50 μM, followed by measuring dose-response effects of “hits” between 0.05 and 500 μM for the calculation of IC50 values.
The compounds were dissolved in DMSO and it was shown that the solvent has no effect on the assay at this concentration.

[4] = target: T2, EGF binding to human A431 cells (Homo sapiens, UniProt P00533); assay: Epidermal Growth Factor (EGF) radioligand binding assay
T2 construct: endogenous in cells; host or cells: A431
Experimental: as §1

[5] = test system: basic FGF; assay: Basic Fibroblast Growth Factor (FGF)-induced cell proliferation; format: cell-based
Experimental: as §1

[6] = ***re-tested in full-concentration response assays

T2 sequence (P00533 25-1210): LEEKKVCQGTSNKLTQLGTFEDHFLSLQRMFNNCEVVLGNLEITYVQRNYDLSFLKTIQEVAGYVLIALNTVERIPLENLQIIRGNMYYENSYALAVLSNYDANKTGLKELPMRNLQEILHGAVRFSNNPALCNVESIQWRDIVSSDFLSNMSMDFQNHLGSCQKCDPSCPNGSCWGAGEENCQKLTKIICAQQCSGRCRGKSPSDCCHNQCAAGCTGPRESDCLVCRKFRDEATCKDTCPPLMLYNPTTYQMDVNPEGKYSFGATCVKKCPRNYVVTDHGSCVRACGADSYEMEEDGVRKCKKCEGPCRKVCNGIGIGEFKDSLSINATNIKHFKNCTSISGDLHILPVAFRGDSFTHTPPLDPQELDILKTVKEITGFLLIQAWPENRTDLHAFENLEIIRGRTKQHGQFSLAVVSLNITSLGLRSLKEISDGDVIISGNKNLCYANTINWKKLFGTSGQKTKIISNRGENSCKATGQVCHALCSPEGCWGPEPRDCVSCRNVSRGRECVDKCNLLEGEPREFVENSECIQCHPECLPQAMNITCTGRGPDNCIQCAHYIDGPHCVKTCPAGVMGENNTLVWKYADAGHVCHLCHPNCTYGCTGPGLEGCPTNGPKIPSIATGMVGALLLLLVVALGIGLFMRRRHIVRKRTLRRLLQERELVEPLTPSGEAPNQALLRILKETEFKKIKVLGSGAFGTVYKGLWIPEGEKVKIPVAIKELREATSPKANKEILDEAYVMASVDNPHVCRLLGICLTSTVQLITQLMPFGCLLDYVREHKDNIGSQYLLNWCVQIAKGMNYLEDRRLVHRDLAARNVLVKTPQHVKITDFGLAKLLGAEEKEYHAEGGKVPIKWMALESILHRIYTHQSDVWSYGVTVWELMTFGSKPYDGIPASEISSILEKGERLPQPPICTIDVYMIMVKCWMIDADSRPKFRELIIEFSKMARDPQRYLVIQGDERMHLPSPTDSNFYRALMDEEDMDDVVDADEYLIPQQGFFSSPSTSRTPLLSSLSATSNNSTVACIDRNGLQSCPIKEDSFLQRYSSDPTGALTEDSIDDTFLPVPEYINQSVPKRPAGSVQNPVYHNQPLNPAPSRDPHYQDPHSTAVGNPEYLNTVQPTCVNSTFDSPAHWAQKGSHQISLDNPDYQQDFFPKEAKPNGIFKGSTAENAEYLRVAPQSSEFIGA

| SMILES | IC50 [1, 6] [µM] | IC50 ([1]; **tested after re-synthesised) [µM] | IC50 ([1]; *re-test 3 months later) [µM] | IC50 ([1]; first test (unmarked value)) [µM] | inhibition of PDGF binding [2] | IC50 [3, 6] [µM] | IC50 ([3]; **tested after re-synthesised) [µM] | IC50 ([3]; *re-test 3 months later) [µM] | IC50 ([3]; first test (unmarked value)) [µM] | inhibition of EGF binding [4] | IC50 ([5]; Fibroblast, significant anti-proliferative activity, estimated value, read-out: anti-proliferative activity against basic FGF, estimated value) [µM] | cytotoxicity ([5]; at 10 μM) |
| --- | --- | --- | --- | --- | --- | --- | --- | --- | --- | --- | --- | --- |
| NC(=O)c1ccc(Cl)c(NC(=O)c2csc(C3CCN(C(=O)CSc4ncccn4)CC3)n2)c1 [Compound 1633-00382] | 12 | 20 | 16 | 0.938 | did not inhibit | 1 | 4 | 3.49 | 0.655 | did not inhibit |  |  |
| CN(C)c1cccc(C(=O)N2CCC(c3nc(C(=O)Nc4cc(CC(N)=O)ccc4Cl)cs3)CC2)c1 [Compound 1633-02177] |  | 0.478 |  | 0.712 | did not inhibit |  | 18 |  | 12 | did not inhibit | 0.406 | moderate but not significant cytotoxicity |
